Columns and labels:
[1] = tested on: phosphorylated CDC25B; assay: Effect of addition of SB203580 on phosphorylation of CDC25B (Experimental Example 6); type: cell-based, human
Experimental: (§1) Neurospheres derived from 201B7 cells, which are cells of a human iPS cell line, were prepared in the same manner as in Experimental Example 1. Subsequently, each neurosphere was cultured for 24 hours in the presence of each of DAPT and Compound 34. DAPT and Compound 34 were used at the same concentrations as in Experimental Example 1. In addition, in this case, SB203580 (CAS number: 152121-47-6), which is a p38 inhibitor, was added to the culture medium at a final concentration of 20 μM. In addition, a group to which SB203580 had not been added was also prepared as a control.
Subsequently, each neurosphere was fixed with paraformaldehyde and subjected to immunostaining of phosphorylated CDC25B.
In FIG. 12(c), “DAPT” indicates it is the result obtained from the control into which the DAPT treatment has been carried out in the absence of SB203580, and “DAPT+SB203580” indicates it is the result obtained by carrying out the DAPT treatment in the presence of SB203580.

[2] = tested on: nerve cells induced from neurospheres derived from 201B7 cells; assay: Effect of addition of SB203580 on neurite outgrowth (Experimental Example 7); type: cell-based, human; conditions: differentiated 14 days
Experimental: as §1
(§2) Subsequently, each neurosphere was seeded on a 48-well chamber slide (IWAKI & CO., LTD.) coated with poly-L-ornithine/fibronectin, cultured for 14 days in a culture medium containing no growth factor at 37° C. in an environment of 95% air and 5% CO2, and differentiated into nerve cells.
Subsequently, each of the obtained nerve cells was fixed with 4% paraformaldehyde in 0.1 M PBS, and each of βIII-tubulin which is a nerve cell marker, and the Tau protein which is frequently distributed in axons, was immunostained, and the length of the neurite was measured. […]

[3] = tested on: phosphorylated p38; assay: Effect of RK-682 on phosphorylation of p38 (Experimental Example 9); type: cell-based, human; conditions: 201B7 neurospheres; 20 μM RK-682, 24 hours; vs control
Experimental: (§3) Neurospheres derived from 201B7 cells, which are cells of a human iPS cell line, were prepared in the same manner as in Experimental Example 1. Subsequently, the neurospheres were cultured for 24 hours in the presence of RK-682 at a final concentration of 20 μM. In addition, as a control, a group to which RK-682 was not added was also prepared. Subsequently, each neurosphere was fixed with paraformaldehyde and subjected to immunostaining of each of the phosphorylated p38 and the phosphorylated CDC25B.

[4] = tested on: phosphorylated CDC25B; assay: Effect of RK-682 on phosphorylation of CDC25B (Experimental Example 9); type: cell-based, human; conditions: 201B7 neurospheres; 20 μM RK-682, 24 hours; vs control
Experimental: as §3

[5] = tested on: nerve cells induced from neurospheres derived from 201B7 cells; assay: Effect of RK-682 on neurite outgrowth (Experimental Example 10); type: cell-based, human; conditions: 201B7 neurospheres; 20 μM RK-682, 24 hours, differentiated 14 days; vs control
Experimental: as §3, with “prepared.” for “prepared. Subsequently, each neurosphere was fixed with paraformaldehyde and subjected to immunostaining of each of the phosphorylated p38 and the phosphorylated CDC25B.”
as §2
Subsequently, each of the obtained nerve cells was fixed with 4% paraformaldehyde in 0.1 M PBS, and each of βIII-tubulin which is a nerve cell marker, and the Tau protein which is frequently distributed in axons, was immunostained, and the length of the neurite was measured.

[6] = biological target: T1, CDC25B (Homo sapiens, UniProt P30305); conditions: "it is said"; cited from earlier work
T1 sequence (P30305 1-580): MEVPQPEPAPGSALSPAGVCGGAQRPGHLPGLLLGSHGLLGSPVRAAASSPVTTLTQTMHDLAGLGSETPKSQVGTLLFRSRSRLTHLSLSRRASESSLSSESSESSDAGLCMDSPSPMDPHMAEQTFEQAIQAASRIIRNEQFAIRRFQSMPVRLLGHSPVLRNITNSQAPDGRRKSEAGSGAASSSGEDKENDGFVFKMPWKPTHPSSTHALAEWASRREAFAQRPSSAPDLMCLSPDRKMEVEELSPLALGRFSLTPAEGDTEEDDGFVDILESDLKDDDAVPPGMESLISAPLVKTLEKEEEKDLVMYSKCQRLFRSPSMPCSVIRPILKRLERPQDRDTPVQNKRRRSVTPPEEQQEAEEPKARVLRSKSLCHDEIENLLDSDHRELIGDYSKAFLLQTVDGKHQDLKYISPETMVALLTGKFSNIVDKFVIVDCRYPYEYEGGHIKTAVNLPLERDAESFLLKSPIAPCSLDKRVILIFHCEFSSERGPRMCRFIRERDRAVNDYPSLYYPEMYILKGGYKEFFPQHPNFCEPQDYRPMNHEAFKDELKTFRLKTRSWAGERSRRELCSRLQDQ

[7] = 20 μM SB203580 during Compound 34 treatment (1 μM, 24 hours), vs without SB203580
[8] = 20 μM SB203580 during DAPT treatment (10 μM, 24 hours), vs DAPT without SB203580

SMILES | increase in the amount of phosphorylated CDC25B in the neurosphere [1, 7] | increase in the amount of phosphorylated CDC25B in the neurosphere [1, 8] | neurite outgrowth (neurite length) [2, 7] | neurite outgrowth (neurite length) [2, 8] | amount of phosphorylated p38 in the neurosphere [3] | amount of phosphorylated CDC25B in the neurosphere [4] | neurite outgrowth (neurite length), βIII-tubulin immunostaining [5] | neurite outgrowth, Tau protein immunostaining [5] | dephosphorylation inhibitory effect on CDC25B [6]
C[S+]([O-])c1ccc(-c2nc(-c3ccncc3)c(-c3ccc(F)cc3)[nH]2)cc1 (stereo not drawn) [SB203580] | significantly suppressed | significantly suppressed | significantly suppressed | significantly suppressed | – | – | – | – | –
CCCCCCCCCCCCCCCC(=O)C1=C(O)[C@@H](CO)OC1=O [RK-682] | – | – | – | – | significantly increased | significantly increased | significantly promoted | significantly promoted | does not have a dephosphorylation inhibitory effect
